Reference: PubChem BioAssay AID1919003 (Molecular Pharmacology Branch, DTP, NCI, 2023)

Test system: 786-0 complex spheroids with HUVEC/MSC, growth % test/control
Assay: Anticancer human tumor 786-0 cell line growth inhibition [AhR];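 also: compound exposure lasted seven days before the read-out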
Conditions: for IC50: curve of first compound; for viability, T/C: stronger effect = lower value
Summary of the method: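 Complex tumor spheroids co-cultured with HUVEC and human MSC stroma; AhR antagonists tested in combination with standard-of-care and investigational agents. Top concentration at or near clinical Cmax (else 10 microM), half-log dilutions; growth expressed as percent test/control.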

[1] = second compound 0.1 µM, first compound 0.000949 µM
[2] = second compound 0.1 µM, first compound 0.003 µM
[3] = second compound 0.1 µM, first compound 0.00949 µM
[4] = second compound 0.1 µM, first compound 0.03 µM
[5] = second compound 0.1 µM, first compound 0.0949 µM
[6] = second compound 0.1 µM, first compound 0.3 µM
[7] = second compound 0.316 µM, first compound 0.000949 µM
[8] = second compound 0.316 µM, first compound 0.003 µM
[9] = second compound 0.316 µM, first compound 0.00949 µM
[10] = second compound 0.316 µM, first compound 0.03 µM
[11] = second compound 0.316 µM, first compound 0.0949 µM
[12] = second compound 0.316 µM, first compound 0.3 µM
[13] = second compound 1 µM, first compound 0.000949 µM
[14] = second compound 1 µM, first compound 0.003 µM
[15] = second compound 1 µM, first compound 0.00949 µM
[16] = second compound 1 µM, first compound 0.03 µM
[17] = second compound 1 µM, first compound 0.0949 µM
[18] = second compound 1 µM, first compound 0.3 µM
[19] = second compound 3.16 µM, first compound 0.000949 µM
[20] = second compound 3.16 µM, first compound 0.003 µM
[21] = second compound 3.16 µM, first compound 0.00949 µM
[22] = second compound 3.16 µM, first compound 0.03 µM
[23] = second compound 3.16 µM, first compound 0.0949 µM
[24] = second compound 3.16 µM, first compound 0.3 µM
[25] = second compound 10 µM, first compound 0.000949 µM
[26] = second compound 10 µM, first compound 0.003 µM
[27] = second compound 10 µM, first compound 0.00949 µM
[28] = second compound 10 µM, first compound 0.03 µM
[29] = second compound 10 µM, first compound 0.0949 µM
[30] = second compound 10 µM, first compound 0.3 µM

## CC(C)CC(NC(=O)C(Cc1ccccc1)NC(=O)c1cnccn1)B(O)O (stereo not given) + Cc1cncc(-c2nc(NCCc3c[nH]c4ccccc34)c3ncn(C(C)C)c3n2)c1
Second compound 0.1 µM
  IC50: 17.8 nM
Second compound 0.316 µM
  IC50: 18.6 nM
Second compound 1 µM
  IC50: 17 nM
Second compound 3.16 µM
  IC50: 8.46 nM
Second compound 10 µM
  IC50: < 0.949 nM
[1]
  viability, T/C: 136%
[2]
  viability, T/C: 119%
[3]
  viability, T/C: 103%
[4]
  viability, T/C: 5.33%
[5]
  viability, T/C: 0.52%
[6]
  viability, T/C: 0.46%
[7]
  viability, T/C: 127%
[8]
  viability, T/C: 120%
[9]
  viability, T/C: 118%
[10]
  viability, T/C: 3.15%
[11]
  viability, T/C: 0.85%
[12]
  viability, T/C: 0.37%
[13]
  viability, T/C: 102%
[14]
  viability, T/C: 110%
[15]
  viability, T/C: 96.9%
[16]
  viability, T/C: 4.16%
[17]
  viability, T/C: 0.6%
[18]
  viability, T/C: 0.7%
[19]
  viability, T/C: 70.7%
[20]
  viability, T/C: 69.3%
[21]
  viability, T/C: 47.8%
[22]
  viability, T/C: 1.63%
[23]
  viability, T/C: 0.28%
[24]
  viability, T/C: 0.43%
[25]
  viability, T/C: 10.2%
[26]
  viability, T/C: 16%
[27]
  viability, T/C: 2.59%
[28]
  viability, T/C: 0.18%
[29]
  viability, T/C: 0.17%
[30]
  viability, T/C: 0.24%

## CCc1c2c(nc3ccc(O)cc13)-c1cc3c(c(=O)n1C2)COC(=O)[C@]3(O)CC + Cc1cncc(-c2nc(NCCc3c[nH]c4ccccc34)c3ncn(C(C)C)c3n2)c1
Second compound 0.1 µM
  IC50: 6.02 nM
Second compound 0.316 µM
  IC50: 6.06 nM
Second compound 1 µM
  IC50: 5.1 nM
Second compound 3.16 µM
  IC50: 1.52 nM
Second compound 10 µM
  IC50: < 0.949 nM
[1]
  viability, T/C: 106%
[2]
  viability, T/C: 93.5%
[3]
  viability, T/C: 21.5%
[4]
  viability, T/C: 5.21%
[5]
  viability, T/C: 2.42%
[6]
  viability, T/C: 2.24%
[7]
  viability, T/C: 112%
[8]
  viability, T/C: 95.4%
[9]
  viability, T/C: 21%
[10]
  viability, T/C: 6.67%
[11]
  viability, T/C: 3.31%
[12]
  viability, T/C: 2.09%
[13]
  viability, T/C: 99.5%
[14]
  viability, T/C: 79.5%
[15]
  viability, T/C: 15.4%
[16]
  viability, T/C: 5.63%
[17]
  viability, T/C: 2.53%
[18]
  viability, T/C: 3.71%
[19]
  viability, T/C: 65.7%
[20]
  viability, T/C: 27.2%
[21]
  viability, T/C: 4.92%
[22]
  viability, T/C: 2.43%
[23]
  viability, T/C: 1.6%
[24]
  viability, T/C: 1.37%
[25]
  viability, T/C: 1.65%
[26]
  viability, T/C: 0.61%
[27]
  viability, T/C: 0.43%
[28]
  viability, T/C: 0.38%
[29]
  viability, T/C: 0.28%
[30]
  viability, T/C: 0.36%

## COc1cc(Nc2ncc3c(n2)-c2ccc(Cl)cc2C(c2c(F)cccc2OC)=NC3)ccc1C(=O)O + Cc1cncc(-c2nc(NCCc3c[nH]c4ccccc34)c3ncn(C(C)C)c3n2)c1
Second compound 0.1 µM
  IC50: 6870 nM
Second compound 0.316 µM
  IC50: 6370 nM
Second compound 1 µM
  IC50: 6550 nM
Second compound 3.16 µM
  IC50: 7760 nM
Second compound 10 µM
  IC50: < 31.6 nM
Second compound 0.1 µM, first compound 0.0316 µM
  viability, T/C: 115%
Second compound 0.1 µM, first compound 0.1 µM
  viability, T/C: 115%
Second compound 0.1 µM, first compound 0.316 µM
  viability, T/C: 155%
Second compound 0.1 µM, first compound 1 µM
  viability, T/C: 104%
Second compound 0.1 µM, first compound 3.16 µM
  viability, T/C: 75.5%
Second compound 0.1 µM, first compound 10 µM
  viability, T/C: 38.2%
Second compound 0.316 µM, first compound 0.0316 µM
  viability, T/C: 121%
Second compound 0.316 µM, first compound 0.1 µM
  viability, T/C: 121%
Second compound 0.316 µM, first compound 0.316 µM
  viability, T/C: 144%
Second compound 0.316 µM, first compound 1 µM
  viability, T/C: 123%
Second compound 0.316 µM, first compound 3.16 µM
  viability, T/C: 69%
Second compound 0.316 µM, first compound 10 µM
  viability, T/C: 37.8%
Second compound 1 µM, first compound 0.0316 µM
  viability, T/C: 115%
Second compound 1 µM, first compound 0.1 µM
  viability, T/C: 125%
Second compound 1 µM, first compound 0.316 µM
  viability, T/C: 152%
Second compound 1 µM, first compound 1 µM
  viability, T/C: 114%
Second compound 1 µM, first compound 3.16 µM
  viability, T/C: 71.2%
Second compound 1 µM, first compound 10 µM
  viability, T/C: 37.9%
Second compound 3.16 µM, first compound 0.0316 µM
  viability, T/C: 63.3%
Second compound 3.16 µM, first compound 0.1 µM
  viability, T/C: 68.3%
Second compound 3.16 µM, first compound 0.316 µM
  viability, T/C: 94.2%
Second compound 3.16 µM, first compound 1 µM
  viability, T/C: 92.3%
Second compound 3.16 µM, first compound 3.16 µM
  viability, T/C: 70.1%
Second compound 3.16 µM, first compound 10 µM
  viability, T/C: 44.4%
Second compound 10 µM, first compound 0.0316 µM
  viability, T/C: 4.3%
Second compound 10 µM, first compound 0.1 µM
  viability, T/C: 1.69%
Second compound 10 µM, first compound 0.316 µM
  viability, T/C: 2.04%
Second compound 10 µM, first compound 1 µM
  viability, T/C: 3.84%
Second compound 10 µM, first compound 3.16 µM
  viability, T/C: 4.27%
Second compound 10 µM, first compound 10 µM
  viability, T/C: 16.9%
